Assay results taken from the supplement of paper PMC10307832.

Columns and labels:
Experiment in all cases: relative viability (nuclei count vs DMSO), 5 days (fraction); higher = more cells survive
EHT 1864 = compound: C1COCCN1CC2=CC(=O)C(=CO2)OCCCCCSC3=C4C=CC(=CC4=NC=C3)C(F)(F)F [EHT 1864]
Procedure, shortened: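 MetaXpress counted nuclei in 4× images of lung cancer cell lines that had been fixed, permeabilised and Hoechst-stained in one step. Before that, cells in 1536-well plates were kept overnight at 37 °C, pinned with five √10-spaced library-drug doses on vehicle-anchored plates, and cultured 5 days without medium change. Viability takes treated-well nuclei over vehicle-well nuclei and uses the median across plates. Plates were accepted only at control CV below 25% and at least one doubling.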

EHT 1864 + Bortezomib = compound: C1COCCN1CC2=CC(=O)C(=CO2)OCCCCCSC3=C4C=CC(=CC4=NC=C3)C(F)(F)F [EHT 1864] + CC(C)C[C@H](NC(=O)[C@H](Cc1ccccc1)NC(=O)c1cnccn1)B(O)O [Bortezomib] (partner 0.002 µM)
Procedure, shortened: (§1)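 Nuclei were stained with Hoechst during a one-step fixation (final 0.05% Triton X-100, 1% formaldehyde, 1 ug/ml Hoechst) carried out 5 days after dosing, then counted on 4× images. The cells, lung cancer lines in 1536-well plates, had been dosed by pin tool the day after seeding with one drug alone or a fixed anchor-drug dose plus five library-drug doses (not always all listed) in √10 steps. Relative viability is the nuclei count in treated wells divided by that in vehicle wells, and each value is the median of duplicate plates.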

EHT 1864 + Navitoclax = compound: C1COCCN1CC2=CC(=O)C(=CO2)OCCCCCSC3=C4C=CC(=CC4=NC=C3)C(F)(F)F [EHT 1864] + CC1(C)CCC(c2ccc(Cl)cc2)=C(CN2CCN(c3ccc(C(=O)NS(=O)(=O)c4ccc(N[C@H](CCN5CCOCC5)CSc5ccccc5)c(S(=O)(=O)C(F)(F)F)c4)cc3)CC2)C1 [Navitoclax] (partner 0.5 µM)
Procedure, shortened: as §1

EHT 1864 + Foretinib = compound: C1COCCN1CC2=CC(=O)C(=CO2)OCCCCCSC3=C4C=CC(=CC4=NC=C3)C(F)(F)F [EHT 1864] + COc1cc2c(Oc3ccc(NC(=O)C4(C(=O)Nc5ccc(F)cc5)CC4)cc3F)ccnc2cc1OCCCN1CCOCC1 [Foretinib] (partner 0.25 µM)
Procedure, shortened: as §1

EHT 1864 + Lapatinib = compound: C1COCCN1CC2=CC(=O)C(=CO2)OCCCCCSC3=C4C=CC(=CC4=NC=C3)C(F)(F)F [EHT 1864] + CS(=O)(=O)CCNCc1ccc(-c2ccc3ncnc(Nc4ccc(OCc5cccc(F)c5)c(Cl)c4)c3c2)o1 [Lapatinib] (partner 2 µM)
Procedure, shortened: as §1

EHT 1864 + Pictilisib = compound: C1COCCN1CC2=CC(=O)C(=CO2)OCCCCCSC3=C4C=CC(=CC4=NC=C3)C(F)(F)F [EHT 1864] + CS(=O)(=O)N1CCN(Cc2cc3nc(-c4cccc5[nH]ncc45)nc(N4CCOCC4)c3s2)CC1 [Pictilisib] (partner 1 µM)
Procedure, shortened: as §1

EHT 1864 + Crizotinib = compound: C1COCCN1CC2=CC(=O)C(=CO2)OCCCCCSC3=C4C=CC(=CC4=NC=C3)C(F)(F)F [EHT 1864] + C[C@@H](Oc1cc(-c2cnn(C3CCNCC3)c2)cnc1N)c1c(Cl)ccc(F)c1Cl [Crizotinib] (partner 1 µM)
Procedure, shortened: as §1

EHT 1864 + Linsitinib = compound: C1COCCN1CC2=CC(=O)C(=CO2)OCCCCCSC3=C4C=CC(=CC4=NC=C3)C(F)(F)F [EHT 1864] + C[C@]1(O)C[C@@H](c2nc(-c3ccc4ccc(-c5ccccc5)nc4c3)c3c(N)nccn32)C1 [Linsitinib] (partner 1 µM)
Procedure, shortened: as §1

EHT 1864 + Alpelisib = compound: C1COCCN1CC2=CC(=O)C(=CO2)OCCCCCSC3=C4C=CC(=CC4=NC=C3)C(F)(F)F [EHT 1864] + Cc1nc(NC(=O)N2CCC[C@H]2C(N)=O)sc1-c1ccnc(C(C)(C)C(F)(F)F)c1 [Alpelisib] (partner 2 µM)
Procedure, shortened: as §1

EHT 1864 + Vorinostat = compound: C1COCCN1CC2=CC(=O)C(=CO2)OCCCCCSC3=C4C=CC(=CC4=NC=C3)C(F)(F)F [EHT 1864] + O=C(CCCCCCC(=O)Nc1ccccc1)NO [Vorinostat] (partner 1 µM)
Procedure, shortened: as §1

EHT 1864 + Olaparib = compound: C1COCCN1CC2=CC(=O)C(=CO2)OCCCCCSC3=C4C=CC(=CC4=NC=C3)C(F)(F)F [EHT 1864] + O=C(c1cc(Cc2n[nH]c(=O)c3ccccc23)ccc1F)N1CCN(C(=O)C2CC2)CC1 [Olaparib] (partner 8 µM)
Procedure, shortened: as §1

IA-LM
relative viability (EHT 1864; 0.04 µM): 0.925
relative viability (EHT 1864; 0.4 µM): 0.908
relative viability (EHT 1864; 1.265 µM): 0.764
relative viability (EHT 1864; 4 µM): 0.855
relative viability (EHT 1864 + Bortezomib; first compound 0.04 µM): 0.821
relative viability (EHT 1864 + Bortezomib; first compound 0.1265 µM): 0.553
relative viability (EHT 1864 + Bortezomib; first compound 0.4 µM): 0.956
relative viability (EHT 1864 + Bortezomib; first compound 1.265 µM): 0.709
relative viability (EHT 1864 + Bortezomib; first compound 4 µM): 0.536
relative viability (EHT 1864 + Navitoclax; first compound 0.04 µM): 0.697
relative viability (EHT 1864 + Navitoclax; first compound 0.1265 µM): 0.653
relative viability (EHT 1864 + Navitoclax; first compound 0.4 µM): 0.775
relative viability (EHT 1864 + Navitoclax; first compound 1.265 µM): 0.803
relative viability (EHT 1864 + Navitoclax; first compound 4 µM): 0.569
relative viability (EHT 1864 + Foretinib; first compound 0.04 µM): 1.21
relative viability (EHT 1864 + Foretinib; first compound 0.4 µM): 1.09
relative viability (EHT 1864 + Foretinib; first compound 1.265 µM): 1.03
relative viability (EHT 1864 + Foretinib; first compound 4 µM): 0.901
relative viability (EHT 1864 + Lapatinib; first compound 0.04 µM): 0.704
relative viability (EHT 1864 + Lapatinib; first compound 0.4 µM): 0.74
relative viability (EHT 1864 + Lapatinib; first compound 4 µM): 0.622
relative viability (EHT 1864 + Pictilisib; first compound 0.04 µM): 0.421
relative viability (EHT 1864 + Pictilisib; first compound 0.4 µM): 0.38
relative viability (EHT 1864 + Pictilisib; first compound 1.265 µM): 0.387
relative viability (EHT 1864 + Pictilisib; first compound 4 µM): 0.384
relative viability (EHT 1864 + Crizotinib; first compound 0.04 µM): 1.01
relative viability (EHT 1864 + Crizotinib; first compound 0.4 µM): 0.754
relative viability (EHT 1864 + Crizotinib; first compound 4 µM): 0.684
relative viability (EHT 1864 + Linsitinib; first compound 0.04 µM): 0.524
relative viability (EHT 1864 + Linsitinib; first compound 0.1265 µM): 0.325
relative viability (EHT 1864 + Linsitinib; first compound 0.4 µM): 0.572
relative viability (EHT 1864 + Linsitinib; first compound 1.265 µM): 0.463
relative viability (EHT 1864 + Linsitinib; first compound 4 µM): 0.644
relative viability (EHT 1864 + Alpelisib; first compound 0.04 µM): 0.875
relative viability (EHT 1864 + Alpelisib; first compound 0.1265 µM): 0.419
relative viability (EHT 1864 + Alpelisib; first compound 0.4 µM): 0.799
relative viability (EHT 1864 + Alpelisib; first compound 1.265 µM): 0.677
relative viability (EHT 1864 + Alpelisib; first compound 4 µM): 0.639
relative viability (EHT 1864 + Vorinostat; first compound 0.04 µM): 0.917
relative viability (EHT 1864 + Vorinostat; first compound 0.4 µM): 0.853
relative viability (EHT 1864 + Vorinostat; first compound 1.265 µM): 0.946
relative viability (EHT 1864 + Vorinostat; first compound 4 µM): 1.24
relative viability (EHT 1864 + Olaparib; first compound 0.04 µM): 0.926
relative viability (EHT 1864 + Olaparib; first compound 0.1265 µM): 0.842
relative viability (EHT 1864 + Olaparib; first compound 0.4 µM): 0.81
relative viability (EHT 1864 + Olaparib; first compound 1.265 µM): 0.62
relative viability (EHT 1864 + Olaparib; first compound 4 µM): 0.618
